The values below come from US10525143B2, “Conjugate of polyethylene glycol and anesthetic, and preparation method thereof” (JenKem Technology Co., Ltd. (Tianjin), priority 2015, dated 2020).

In one experiment the test system is SD rats. Nature of the experiment: Von Frey test in rat incisional pain model (Brennan method). It is filed as in vivo. Particulars: for Von Frey Hairs (g) 1 h: paw withdrawal threshold 1 h after surgery; for Von Frey Hairs (g) 1 h / Von Frey Hairs (g) 3 h / Von Frey Hairs (g) 6 h / Von Frey Hairs (g) 12 h / Von Frey Hairs (g) 24 h: injected in the incision, 10 mg/kg (counted by lidocaine) or 4 mg/kg (counted by bupivacaine); for Von Frey Hairs (g) 1 h / Von Frey Hairs (g) 3 h / Von Frey Hairs (g) 6 h / Von Frey Hairs (g) 12 h / Von Frey Hairs (g) 24 h / Von Frey Hairs (g) Basline: x±s; for Von Frey Hairs (g) 3 h: paw withdrawal threshold 3 h after surgery; for Von Frey Hairs (g) 6 h: paw withdrawal threshold 6 h after surgery; for Von Frey Hairs (g) 12 h: paw withdrawal threshold 12 h after surgery; for Von Frey Hairs (g) 24 h: paw withdrawal threshold 24 h after surgery; for Von Frey Hairs (g) Basline: paw withdrawal threshold before surgery and administration, 6 rats per group.

The conditions of experiment [1]: single dose injected; postoperative pain; background statement; cited from earlier work.
For experiment [2] the following is noted: background statement; cited from earlier work.

Where a name gives a salt, the structure may show the parent alone.

For `CCCCN1CCCCC1C(=O)Nc1c(C)cccc1C` (stereo not drawn) [Bupivacaine hydrochloride], in the experiment on SD rats (discussion of Table 1), the “duration of analgesia (in words)” value was “relatively long duration” and the “onset of analgesic effect (in words)” value is reported as “takes effect more slowly than lidocaine hydrochloride”. Further, in the experiment on SD rats, the “Von Frey Hairs (g) 1 h” value was found to be 4.3 ± 0.7 g, the “Von Frey Hairs (g) 3 h” value is reported as 6.6 ± 0.4 g, the “Von Frey Hairs (g) 6 h” value is 5.3 ± 0.5 g and the “Von Frey Hairs (g) 12 h” value stood at 3.4 ± 0.9 g. Further, in the experiment on SD rats, the “Von Frey Hairs (g) 24 h” value is 1.7 ± 0.4 g and the “Von Frey Hairs (g) Basline” value stood at 7.3 ± 0.7 g.
Take `CCCCN1CCCCC1C(=O)Nc1c(C)cccc1C` (stereo not drawn) [Bupivacaine]: the “duration of analgesic effect” value in experiment [1] is recorded as “less than 7 h”.
For the molecule `CCCCN1CCCC[C@H]1C(=O)Nc1c(C)cccc1C` [L-bupivacaine], the “duration of the drug (local anesthesia)” value in experiment [2] was 5 to 7 h.
For `CCN(CC)CC(=O)Nc1c(C)cccc1C` [Lidocaine hydrochloride], in the experiment with SD rats, the “Von Frey Hairs (g) 1 h” value is 6.6 ± 0.5 g, the “Von Frey Hairs (g) 3 h” value amounted to 6.1 ± 0.4 g, the “Von Frey Hairs (g) 6 h” value was determined as 4.0 ± 0.6 g and the “Von Frey Hairs (g) 12 h” value was 1.5 ± 0.4 g. In addition, in the experiment with SD rats, the “Von Frey Hairs (g) 24 h” value is 1.4 ± 0.2 g and the “Von Frey Hairs (g) Basline” value turned out to be 7.5 ± 0.8 g.
As for `CCN(CC)CC(=O)Nc1c(C)cccc1C` [lidocaine], the “duration of the drug (local anesthesia)” value in experiment [2] is 1 to 2 h.
Consider `CCCN1CCCC[C@H]1C(=O)Nc1c(C)cccc1C` [ropivacaine], for which the “duration of the drug (local anesthesia)” value in experiment [2] is on record as 4.4 h.
